Assay results taken from patent US10435399B2, “HDAC6 inhibitory heterocyclic compound” (TAKEDA PHARMACEUTICAL COMPANY LIMITED, priority 2017, dated 2019).

What follows are compounds tested against T1, HDAC6 enzyme (Homo sapiens, UniProt Q9UBN7) (assay: HDAC6 enzyme inhibitory activity (HDAC-Glo I/II Assay kit)). Details: 10 μM; wells without enzyme = 100% inhibition; read-out: HDAC6 inhibitory rate (%) (10 μM).
T1 construct: transducing full length HDAC6 gene into Sf-9 insect cells; GST; purchased SignalChem; host or cells: Sf-9 insect cells
T1 sequence (Q9UBN7 1-1215): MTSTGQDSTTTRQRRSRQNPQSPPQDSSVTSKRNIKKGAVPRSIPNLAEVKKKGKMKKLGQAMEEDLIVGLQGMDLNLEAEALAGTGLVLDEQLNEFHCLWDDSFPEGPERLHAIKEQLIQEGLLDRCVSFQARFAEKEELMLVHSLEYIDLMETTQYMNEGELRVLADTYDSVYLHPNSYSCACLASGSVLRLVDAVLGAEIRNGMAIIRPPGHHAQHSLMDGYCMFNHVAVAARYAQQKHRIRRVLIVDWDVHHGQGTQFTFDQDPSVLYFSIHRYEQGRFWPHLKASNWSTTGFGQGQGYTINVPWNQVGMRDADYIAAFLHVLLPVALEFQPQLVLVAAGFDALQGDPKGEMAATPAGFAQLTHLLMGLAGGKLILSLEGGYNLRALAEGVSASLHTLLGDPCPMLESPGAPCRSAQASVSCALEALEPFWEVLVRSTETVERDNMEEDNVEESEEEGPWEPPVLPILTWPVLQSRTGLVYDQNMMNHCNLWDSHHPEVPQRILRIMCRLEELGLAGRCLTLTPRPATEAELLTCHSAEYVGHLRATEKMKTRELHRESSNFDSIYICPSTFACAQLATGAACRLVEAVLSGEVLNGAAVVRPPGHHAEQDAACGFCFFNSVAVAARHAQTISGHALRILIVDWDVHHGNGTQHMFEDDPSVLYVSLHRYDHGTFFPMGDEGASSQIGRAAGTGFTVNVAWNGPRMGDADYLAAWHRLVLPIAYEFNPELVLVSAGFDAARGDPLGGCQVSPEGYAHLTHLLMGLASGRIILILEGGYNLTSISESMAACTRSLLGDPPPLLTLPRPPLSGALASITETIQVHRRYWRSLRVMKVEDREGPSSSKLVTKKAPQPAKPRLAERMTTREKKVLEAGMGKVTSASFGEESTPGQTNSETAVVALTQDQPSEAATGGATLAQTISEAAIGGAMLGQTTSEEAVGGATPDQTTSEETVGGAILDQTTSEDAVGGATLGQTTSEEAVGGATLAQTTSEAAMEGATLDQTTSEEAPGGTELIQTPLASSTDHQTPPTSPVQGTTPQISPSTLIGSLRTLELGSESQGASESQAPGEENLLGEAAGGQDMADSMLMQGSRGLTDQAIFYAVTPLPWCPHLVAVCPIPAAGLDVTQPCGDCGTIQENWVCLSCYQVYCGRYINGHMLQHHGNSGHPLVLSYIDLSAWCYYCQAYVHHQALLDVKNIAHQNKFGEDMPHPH
Type: biochemical
Procedure, shortened: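 Luminescence read-out after 20 min reaction with HDAC-Glo substrate-developer, following 60 min room-temperature preincubation of compound with Sf-9-expressed, GST-purified full-length enzyme. Inhibition is relative to no-enzyme wells set as 100%.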

Row | Compound | inhibition at 10 µM [%]
1 | CC(C)OC(=O)N1CCCC[C@@H]1CN1Cc2ccc(-c3nnc(C(F)F)o3)cc2C1=O [Example 43, isopropyl (2R)-2-((6-(5-(difluoromethyl)-1,3,4-oxadiazol-2-yl)-1-oxo-1,3-dihydro-2H-isoindol-2-yl)methyl)piperidine-1-carboxylate] | 96
2 | O=C1c2cc(-c3nnc(C(F)F)o3)ccc2CN1C[C@H]1COCCN1S(=O)(=O)C1CC1 [Example 44, 2-(((3S)-4-(cyclopropylsulfonyl)morpholin-3-yl)methyl)-6-(5-(difluoromethyl)-1,3,4-oxadiazol-2-yl)isoindolin-1-one] | 100
3 | O=C1c2cc(-c3nnc(C(F)F)o3)ccc2CN1C[C@H]1COCCN1C(=O)C1CC1 [Example 45, 2-(((3S)-4-(cyclopropylcarbonyl)morpholin-3-yl)methyl)-6-(5-(difluoromethyl)-1,3,4-oxadiazol-2-yl)isoindolin-1-one] | 99
4 | CC(C)OC(=O)N1CCOC[C@@H]1CN1Cc2ccc(-c3nnc(C(F)F)o3)cc2C1=O [Example 46, isopropyl (3S)-3-((6-(5-(difluoromethyl)-1,3,4-oxadiazol-2-yl)-1-oxo-1,3-dihydro-2H-isoindol-2-yl)methyl)morpholine-4-carboxylate] | 97
5 | O=C1c2cc(-c3nnc(C(F)F)o3)ccc2CN1C[C@H]1COCCN1C(=O)C1CCCC1 [Example 47] | 99
6 | COC(=O)N1CCOC[C@@H]1CN1Cc2ccc(-c3nnc(C(F)F)o3)cc2C1=O [Example 48, methyl (3S)-3-((6-(5-(difluoromethyl)-1,3,4-oxadiazol-2-yl)-1-oxo-1,3-dihydro-2H-isoindol-2-yl)methyl)morpholine-4-carboxylate] | 98
7 | Cc1ccc(S(=O)(=O)N2CCOC[C@@H]2CN2Cc3ccc(-c4nnc(C(F)F)o4)cc3C2=O)cc1 [Example 49, 6-(5-(difluoromethyl)-1,3,4-oxadiazol-2-yl)-2-(((3S)-4-((4-methylphenyl)sulfonyl)morpholin-3-yl)methyl)isoindolin-1-one] | 99
8 | CCCC(=O)N[C@@H]1CCCC[C@H]1N1Cc2ccc(-c3nnc(C(F)F)o3)cc2C1=O [Example 50, N-((1R,2R)-2-(6-(5-(difluoromethyl)-1,3,4-oxadiazol-2-yl)-1-oxo-1,3-dihydro-2H-isoindol-2-yl)cyclohexyl)butanamide] | 101
9 | CCCCCC(=O)N[C@@H]1CCCC[C@H]1N1Cc2ccc(-c3nnc(C(F)F)o3)cc2C1=O [Example 51, N-((1R,2R)-2-(6-(5-(difluoromethyl)-1,3,4-oxadiazol-2-yl)-1-oxo-1,3-dihydro-2H-isoindol-2-yl)cyclohexyl)hexanamide] | 99
10 | CCOC(=O)N[C@@H]1CCCC[C@H]1N1Cc2ccc(-c3nnc(C(F)F)o3)cc2C1=O [Example 52, ethyl ((1R,2R)-2-(6-(5-(difluoromethyl)-1,3,4-oxadiazol-2-yl)-1-oxo-1,3-dihydro-2H-isoindol-2-yl)cyclohexyl)carbamate] | 96

The remaining lines, values ahead:

Row | inhibition at 10 µM [%] | Compound
11 | 98 | O=C1c2cc(-c3nnc(C(F)F)o3)ccc2CN1[C@@H]1CCCC[C@H]1N1CCC2(CC2)C1=O [Example 53, 6-(5-(difluoromethyl)-1,3,4-oxadiazol-2-yl)-2-((1R,2R)-2-(4-oxo-5-azaspiro[2.4]hept-5-yl)cyclohexyl)isoindolin-1-one]
12 | 98 | CCc1cc(CC)n([C@@H]2CCCC[C@H]2N2Cc3ccc(-c4nnc(C(F)F)o4)cc3C2=O)n1 [Example 54, 2-((1R,2R)-2-(3,5-diethyl-1H-pyrazol-1-yl)cyclohexyl)-6-(5-(difluoromethyl)-1,3,4-oxadiazol-2-yl)isoindolin-1-one]
13 | 101 | O=C1c2cc(-c3nnc(C(F)F)o3)ccc2CN1[C@@H]1CCCC[C@H]1n1cc2ccccc2n1 [Example 55, 6-(5-(difluoromethyl)-1,3,4-oxadiazol-2-yl)-2-((1R,2R)-2-(2H-indazol-2-yl)cyclohexyl)isoindolin-1-one]
14 | 92 | O=C1c2cc(-c3nnc(C(F)F)o3)ccc2CN1CC1CC1 [Example 56, 2-(cyclopropylmethyl)-6-(5-(difluoromethyl)-1,3,4-oxadiazol-2-yl)isoindolin-1-one]
15 | 98 | O=C1c2cc(-c3nnc(C(F)F)o3)ccc2CN1Cc1ccccc1 [Example 58, 2-benzyl-6-(5-(difluoromethyl)-1,3,4-oxadiazol-2-yl)isoindolin-1-one]
16 | 94 | O=C1c2cc(-c3nnc(C(F)F)o3)ccc2CN1Cc1ccc(C(F)(F)F)cc1 [Example 59, 6-(5-(difluoromethyl)-1,3,4-oxadiazol-2-yl)-2-(4-(trifluoromethyl)benzyl)isoindolin-1-one]
17 | 96 | O=C1c2cc(-c3nnc(C(F)F)o3)ccc2CN1Cc1ccccn1 [Example 60, 6-(5-(difluoromethyl)-1,3,4-oxadiazol-2-yl)-2-(pyridin-2-ylmethyl)isoindolin-1-one]
18 | 99 | Cc1cc(C)n([C@@H]2CCCC[C@H]2N2Cc3ccc(-c4nnc(C(F)F)o4)cc3C2=O)n1 [Example 61, 6-(5-(difluoromethyl)-1,3,4-oxadiazol-2-yl)-2-((1R,2R)-2-(3,5-dimethyl-1H-pyrazol-1-yl)cyclohexyl)isoindolin-1-one]
19 | 99 | CC(C)(C)OC(=O)N[C@@H]1CCCC[C@H]1N1Cc2ncc(-c3nnc(C(F)F)o3)cc2C1=O [Example 62, tert-butyl ((1R,2R)-2-(3-(5-(difluoromethyl)-1,3,4-oxadiazol-2-yl)-5-oxo-5,7-dihydro-6H-pyrrolo[3,4-b]pyridin-6-yl)cyclohexyl)carbamate]
20 | 99 | O=C(CC1CC1)N[C@@H]1CCCC[C@H]1N1Cc2ccc(-c3nnc(C(F)F)o3)cc2C1=O [Example 63, 2-cyclopropyl-N-((1R,2R)-2-(6-(5-(difluoromethyl)-1,3,4-oxadiazol-2-yl)-1-oxo-1,3-dihydro-2H-isoindol-2-yl)cyclohexyl)acetamide]
21 | 100 | O=C(CCC(F)F)N[C@@H]1CCCC[C@H]1N1Cc2ccc(-c3nnc(C(F)F)o3)cc2C1=O [Example 64, N-((1R,2R)-2-(6-(5-(difluoromethyl)-1,3,4-oxadiazol-2-yl)-1-oxo-1,3-dihydro-2H-isoindol-2-yl)cyclohexyl)-4,4-difluorobutanamide]
22 | 100 | O=C(CCC(F)(F)F)N[C@@H]1CCCC[C@H]1N1Cc2ccc(-c3nnc(C(F)F)o3)cc2C1=O [Example 65, N-((1R,2R)-2-(6-(5-(difluoromethyl)-1,3,4-oxadiazol-2-yl)-1-oxo-1,3-dihydro-2H-isoindol-2-yl)cyclohexyl)-4,4,4-trifluorobutanamide]
23 | 101 | CC(F)C(=O)N[C@@H]1CCCC[C@H]1N1Cc2ccc(-c3nnc(C(F)F)o3)cc2C1=O (stereo partly drawn) [Example 66, N-((1R,2R)-2-(6-(5-(difluoromethyl)-1,3,4-oxadiazol-2-yl)-1-oxo-1,3-dihydro-2H-isoindol-2-yl)cyclohexyl)-2-fluoropropanamide]
24 | 100 | CCC(F)(F)C(=O)N[C@@H]1CCCC[C@H]1N1Cc2ccc(-c3nnc(C(F)F)o3)cc2C1=O [Example 67, N-((1R,2R)-2-(6-(5-(difluoromethyl)-1,3,4-oxadiazol-2-yl)-1-oxo-1,3-dihydro-2H-isoindol-2-yl)cyclohexyl)-2,2-difluorobutanamide]
